From patent US12102630B2 (Synthon B.V., priority 2018, dated 2024)

Assay: gel formation in contact with water / dissolution media
Type: physicochemical
Settings: solid forms
Text: The marketed product comprises lenvatinib mesylate. It is known that the lenvatinib mesylate salt gelifies when in contact with dissolution media, this may cause a delay in its release. EP1797881 discloses a pharmaceutical composition that solved the above problems using an alkaline excipient with a pH of 8 a 5% w/w aqueous solution to reduce the degradation of the active substance and silicic acid to inhibit gelation. Sodium carbonates are described as suitable alkaline excipient.
Gelification limits the dissolution of API and can influence bioavailability of the drug.

tendency to form a gel when in contact with water: don't tend to form a gel
Substance: lenvatinib besylate
